US20200115357A1, “LIVER X RECEPTORS (LXR) MODULATORS” (Phenex-FXR GmbH, priority 2017, published 2020)

How the values were obtained:
[1] = target: T1, LXRβ ligand-binding domain (LBD) (Homo sapiens, UniProt P55055, DUP175-175); experiment: LXR Gal4 reporter transient transfection assay (M2H), Gal4β LBD; type: cell-based; conditions: HEK293 cells; read-out: M2H Gal4β LBD activity range (EC50)
T1 construct: LXRβ (amino acids 156-461); expressed in transfected cells; host or cells: HEK293
T1 sequence (P55055 with tags, fused parts or gaps DUP175-175): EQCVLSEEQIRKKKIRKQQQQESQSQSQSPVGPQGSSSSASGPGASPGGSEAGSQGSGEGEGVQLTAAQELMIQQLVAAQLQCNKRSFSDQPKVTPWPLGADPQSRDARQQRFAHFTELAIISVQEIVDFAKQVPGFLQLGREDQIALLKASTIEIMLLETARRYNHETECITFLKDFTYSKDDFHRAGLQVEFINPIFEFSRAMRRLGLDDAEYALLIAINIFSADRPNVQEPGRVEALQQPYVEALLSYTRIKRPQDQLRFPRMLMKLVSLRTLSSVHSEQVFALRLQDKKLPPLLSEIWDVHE
Description: (§1) The tested compounds were usually dissolved, tested and stored as 20 mM stock solutions in DMSO. Since sulfonyl acetic acid derivatives tend to decarboxylate under these conditions, these stock solutions were prepared, tested and stored as 20 mM DMSO stock solutions containing 100 mM trifluoroacetic acid (5 equivalents). Sulfonyl acetic acid derivatives are shelf stable as solid at rt for long time as reported by Griesbrecht et al. (Synlett 2010:374) or Faucher et al. (J. Med. Chem. 2004; 47:18).
(§2) LXR Gal4 Reporter Transient Transfection Assays
(§3) LXRα and LXRβ activity status was determined via detection of interaction with coactivator and corepressor proteins in mammalian two-hybrid experiments (M2H). For this, via transient transfection the full length (FL) proteins of LXRα (amino acids 1-447; NP005684; SEQ ID NO:7) or LXRβ-(amino acids 1-461; NP009052; SEQ ID NO:8) or the ligand-binding domains (LBD) of LXRα (amino acids 155-447 SEQ ID NO:3) or LXRβ (amino acids 156-461; SEQ ID NO:4) were expressed from pCMV-AD (Stratagene) as fusions to the transcriptional activation domain of NFkB. As cofactors, domains of either the steroid receptor coactivator 1 (SRC1; amino acids 552-887; SEQ ID NO:5) or of the corepressor NCoR (amino acids 1903-2312 SEQ ID NO:6) were expressed as fusions to the DNA binding domain of the yeast transcription factor GAL4 (from pCMV-BD; Stratagene). Interaction was monitored via activation of a coexpressed Firefly Luciferase Reporter gene under control of a promoter containing repetitive GAL4 response elements (vector pFRLuc; Stratagene). Transfection efficiency was controlled via cotransfection of constitutively active pRL-CMV Renilla reniformis luciferase reporter (Promega). HEK293 cells were grown in minimum essential medium (MEM) with 2 mM L-glutamine and Earle's balanced salt solution supplemented with 8.3% fetal bovine serum, 0.1 mM non-essential amino acids, 1 mM sodium pyruvate, at 37° C. in 5% CO2. 3.5×10^4 cells/well were plated in 96-well cell culture plates in growth medium supplemented with 8.3% fetal bovine serum for 16-20 h to ˜90% confluency. For transfection, medium was taken off and LXR and cofactor expressing plasmids as well as the reporter plasmids are added in 30 μL OPTIMEM/well including polyethylene-imine (PEI) as vehicle. Typical amounts of plasmids transfected/well: pCMV-AD-LXR (5 ng), pCMV-BD-cofactor (5 ng), pFR-Luc (100 ng), pRL-CMV (0.5 ng). Compound stocks were prepared in DMSO, prediluted in MEM to a total volume of 120 μL, and added 4 h after addition of the transfection mixture (final vehicle concentration not exceeding 0.2%). Cells were incubated for additional 16 h, lysed for 10 min in 1× Passive Lysis Buffer (Promega) and Firefly and Renilla luciferase activities were measured sequentially in the same cell extract using buffers containing D-luciferine and coelenterazine, respectively. Measurements of luminescence were done in a BMG-Iuminometer.

[2] = target: T2, LXRα ligand-binding domain (LBD) (Homo sapiens, UniProt Q13133); experiment: LXR Gal4 reporter transient transfection assay (M2H), Gal4α LBD; type: cell-based; conditions: HEK293 cells; read-out: M2H Gal4α LBD activity range (EC50)
T2 construct: expressed in transfected cells; host or cells: HEK293
T2 sequence (Q13133 155-447): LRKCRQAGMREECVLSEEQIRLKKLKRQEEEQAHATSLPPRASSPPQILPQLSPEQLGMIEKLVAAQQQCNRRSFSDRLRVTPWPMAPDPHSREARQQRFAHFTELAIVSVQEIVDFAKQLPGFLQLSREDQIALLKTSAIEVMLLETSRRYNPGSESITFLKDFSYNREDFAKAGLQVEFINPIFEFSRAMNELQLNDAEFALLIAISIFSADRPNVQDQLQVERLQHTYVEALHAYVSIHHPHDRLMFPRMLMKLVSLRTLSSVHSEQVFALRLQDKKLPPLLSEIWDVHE
Description: as §1, §2, §3

[3] = target: T3, GST-LXRβ ligand-binding domain (Homo sapiens, UniProt P55055, DUP175-175); experiment: TR-FRETβ activity assay (LXRβ-LBD / NCoA3 coactivator peptide, prestimulated with 24(S)-25-epoxycholesterol); type: biochemical; parameters: key to behavior in FRET assay: ag=agonist; ia=inverse agonist; conditions: for EC50: read-out: FRETβ activity range (EC50); for behavior in FRET assay: agonist or inverse agonist
T3 construct: amino acids 156-461; NP009052; made in house; host or cells: E. coli
T3 sequence (P55055 with tags, fused parts or gaps DUP175-175): T1 sequence (P55055 with tags, fused parts or gaps DUP175-175)
In short: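 E. coli-expressed GST-LXRβ LBD (aa 156-461) at 76 nM with biotinylated NCoA3 coactivator peptide (400 nM), in 240 mM KCl, BSA and Triton-X-100. Anti-GST-Tb cryptate/streptavidin-XL665 TR-FRET after 1 h equilibration at 4 °C, excitation 340 nm, emission 615 and 665 nm. Run in triplicate.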

LXRα full length (FL) = target: T4, LXRα full length (FL) (Homo sapiens, UniProt Q13133); experiment: LXR Gal4 reporter transient transfection assay (M2H), Gal4α FL; type: cell-based; conditions: HEK293 cells; read-out: M2H Gal4α FL activity range (EC50)
T4 construct: the full length (FL) proteins of LXRα (amino acids 1-447); NP005684; expressed in transfected cells; host or cells: HEK293
T4 sequence (Q13133 1-447): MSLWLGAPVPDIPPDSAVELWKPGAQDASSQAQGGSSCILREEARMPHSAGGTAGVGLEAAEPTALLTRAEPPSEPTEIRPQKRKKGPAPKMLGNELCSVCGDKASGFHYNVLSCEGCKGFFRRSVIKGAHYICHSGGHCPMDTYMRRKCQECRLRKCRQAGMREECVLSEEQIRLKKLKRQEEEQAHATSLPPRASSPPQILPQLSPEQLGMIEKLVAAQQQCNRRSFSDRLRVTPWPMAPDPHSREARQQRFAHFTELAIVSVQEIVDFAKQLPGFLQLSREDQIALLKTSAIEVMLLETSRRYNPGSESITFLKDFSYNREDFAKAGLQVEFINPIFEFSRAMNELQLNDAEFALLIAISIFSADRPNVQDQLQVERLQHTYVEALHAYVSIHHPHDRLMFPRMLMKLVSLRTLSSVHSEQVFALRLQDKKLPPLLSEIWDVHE
In short: (§4)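 Mammalian two-hybrid in HEK293 cells transiently transfected with LXRα/β full-length or LBD fused to NFkB activation domain, plus GAL4-DBD fusions of SRC1 coactivator or NCoR corepressor domains and a GAL4-responsive firefly luciferase reporter. Compounds added 4 h post-transfection (vehicle ≤0.2% DMSO), 16 h incubation; firefly luciferase normalized to Renilla.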

LXRβ full length (FL) = target: T5, LXRβ full length (FL) (Homo sapiens, UniProt P55055, DUP175-175); experiment: LXR Gal4 reporter transient transfection assay (M2H), Gal4β FL; type: cell-based; conditions: HEK293 cells; read-out: M2H Gal4β FL activity range (EC50)
T5 construct: the full length (FL) proteins of LXRα (amino acids 1-447); NP005684; NP009052; expressed in transfected cells; host or cells: HEK293
T5 sequence (P55055 with tags, fused parts or gaps DUP175-175): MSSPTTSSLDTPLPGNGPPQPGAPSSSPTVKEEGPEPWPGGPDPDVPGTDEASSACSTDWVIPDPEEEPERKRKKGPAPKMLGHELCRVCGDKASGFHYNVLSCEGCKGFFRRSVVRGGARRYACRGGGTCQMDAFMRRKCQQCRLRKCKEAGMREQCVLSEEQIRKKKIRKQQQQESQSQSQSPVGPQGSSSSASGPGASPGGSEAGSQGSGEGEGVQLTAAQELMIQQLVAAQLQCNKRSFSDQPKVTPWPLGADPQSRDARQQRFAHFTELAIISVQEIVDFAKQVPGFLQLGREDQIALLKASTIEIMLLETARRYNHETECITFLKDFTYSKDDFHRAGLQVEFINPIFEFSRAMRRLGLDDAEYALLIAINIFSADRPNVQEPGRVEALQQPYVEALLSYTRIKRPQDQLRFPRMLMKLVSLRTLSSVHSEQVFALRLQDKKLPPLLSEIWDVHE
In short: as §4

[4] = 1 μM 24(S)-25-epoxycholesterol as prestimulating agonist

SMILES: Cc1cc(C)c(S(=O)(=O)N(Cc2ccc(-c3cccc(CC(=O)O)c3)cc2)Cc2cccc(Br)c2)c(C)c1 [2/3]
- EC50 [1]: 100 to 1000 nM
- EC50 [2]: 100 to 1000 nM
- EC50 [3, 4]: 1000 to 10000 nM
- behavior in FRET assay [3]: ia

SMILES: Cc1cc(C)c(S(=O)(=O)N(Cc2ccc(-c3cccc(CC(=O)O)c3)cc2)Cc2cccc(C(F)(F)F)c2)c(C)c1 [2/4]
- EC50 [1]: < 100 nM
- EC50 [2]: 100 to 1000 nM
- EC50 [3, 4]: 100 to 1000 nM
- behavior in FRET assay [3]: ia

SMILES: Cc1cc(C)c(S(=O)(=O)N(Cc2ccc(-c3cccc(OCC(=O)O)c3)cc2)Cc2ccc(C(F)(F)F)o2)c(C)c1 [5/3]
- EC50 [1]: 100 to 1000 nM
- EC50 [2]: 100 to 1000 nM
- EC50 [3, 4]: 1000 to 10000 nM
- behavior in FRET assay [3]: ia

SMILES: Cc1cc(C)c(S(=O)(=O)N(Cc2ccc(-c3cccc(C(F)(F)C(=O)O)c3)cc2)Cc2ccc(C(F)(F)F)o2)c(C)c1 [5/4]
- EC50 [1]: 100 to 1000 nM
- EC50 [2]: 100 to 1000 nM
- EC50 [3, 4]: 100 to 1000 nM
- behavior in FRET assay [3]: ia

SMILES: Cc1cc(C)c(S(=O)(=O)N(Cc2ccc(-c3cccc(S(=O)(=O)CCCC(=O)O)c3)cc2)Cc2ccc(C(F)(F)F)o2)c(C)c1 [7/2]
- EC50 [1]: 100 to 1000 nM
- EC50 [2]: 100 to 1000 nM
- EC50 [3, 4]: 1000 to 10000 nM
- behavior in FRET assay [3]: ia

SMILES: Cc1cc(C)c(S(=O)(=O)N(Cc2ccc(-c3cccc(C(C)C(=O)O)c3)cc2)Cc2ccc(C(F)(F)F)o2)c(C)c1 (centres unmarked) [7/4]
- EC50 [1]: < 100 nM
- EC50 [2]: < 100 nM
- EC50 [3, 4]: 100 to 1000 nM
- behavior in FRET assay [3]: ia

SMILES: Cc1cc(C)c(S(=O)(=O)N(Cc2ccc(-c3cccc(C4(C(=O)O)CC4)c3)cc2)Cc2ccc(C(F)(F)F)o2)c(C)c1 [7/6]
- EC50 [1]: < 100 nM
- EC50 [2]: 100 to 1000 nM
- EC50 [3, 4]: 100 to 1000 nM
- behavior in FRET assay [3]: ia

SMILES: Cc1cc(C)c(S(=O)(=O)N(Cc2ccc(-c3cc(F)cc(C4(C(=O)O)CC4)c3)cc2)Cc2ccc(C(F)(F)F)o2)c(C)c1 [7/7]
- EC50 [1]: < 100 nM
- EC50 [2]: 100 to 1000 nM
- EC50 [3, 4]: 100 to 1000 nM
- behavior in FRET assay [3]: ia

SMILES: Cc1cc(C)c(S(=O)(=O)N(Cc2ccc(-c3cccc(C4(C(=O)O)CCOCC4)c3)cc2)Cc2ccc(C(F)(F)F)o2)c(C)c1 [7/8]
- EC50 [1]: 100 to 1000 nM
- EC50 [2]: 100 to 1000 nM
- EC50 [3, 4]: > 10000 nM
- behavior in FRET assay [3]: ia

SMILES: Cc1ccc2ccccc2c1[S+]([O-])N(Cc1ccc(-c2cccc(C(C)(C)C(=O)O)c2)cc1)Cc1ccc(C(F)(F)F)o1 (centres unmarked) [Example 27, 2-Methyl-2-(4′-((((2-methylnaphthalen-1-yl)sulfinyl)((5-(trifluoromethyl)furan-2-yl)methyl)amino)methyl)-[1,1′-biphenyl]-3-yl)propanoic acid]
- EC50 (LXRα full length (FL)): < 100 nM
- EC50 (LXRβ full length (FL)): < 100 nM
- EC50 [3, 4]: 100 to 1000 nM
- behavior in FRET assay [3]: ia

SMILES: Cc1ccc2cccnc2c1S(=O)(=O)N(Cc1ccc(-c2cccc(C(C)(C)C(=O)NS(C)(=O)=O)c2)cc1)Cc1ccc(C(F)(F)F)o1 [Example 29, 2-Methyl-2-(4′-(((7-methyl-N-((5-(trifluoromethyl)furan-2-yl)methyl)quinoline)-8-sulfon-amido)methyl)-[1,1′-biphenyl]-3-yl)-N-(methylsulfonyl)propanamide]
- EC50 (LXRα full length (FL)): 100 to 1000 nM
- EC50 (LXRβ full length (FL)): 100 to 1000 nM
- FRETβ activity range (EC50) [3, 4]: inactive

SMILES: Cc1ccc2cccnc2c1S(=O)(=O)N(Cc1ccc(-c2cccc(C(C)(C)C(=O)NO)c2)cc1)Cc1ccc(C(F)(F)F)o1 [Example 30, N-Hydroxy-2-methyl-2-(4′-(((7-methyl-N-((5-(trifluoromethyl)furan-2-yl)methyl)quinoline)-8-sulfonamido)methyl)-[1,1′-biphenyl]-3-yl)propanamide]
- EC50 (LXRα full length (FL)): < 100 nM
- EC50 (LXRβ full length (FL)): < 100 nM
- EC50 [3, 4]: 100 to 1000 nM
- behavior in FRET assay [3]: ag
